# Earlier results, collected in US7666888B2, “Substituted azole aromatic heterocycles as inhibitors of 11β-HSD-1” (Amgen Inc., priority 2006, dated 2010).
# What was measured:
# bone nodule formation = conditions: glucocorticoid effect
# normal subjects = conditions: ingestion
smiles,measurement,setting,value
CC1(C)[C@@H](OC(=O)CCC(=O)O)CC[C@]2(C)[C@H]3C(=O)C=C4[C@@H]5C[C@@](C)(C(=O)O)CC[C@]5(C)CC[C@@]4(C)[C@]3(C)CC[C@@H]12 [carbenoxolone],negative effect on bone nodule formation,bone nodule formation,blocked
same,Hepatic insulin sensitivity,healthy human volunteers,improved
same,reduce the intraocular pressure,normal subjects,20%
